Assay results from article PMC8296573, “Synthesis and Biological Evaluation of Fingolimod Derivatives as Antibacterial Agents” (ACS Omega, 2021).
Values after ≈ are worked out from the molar mass of the structure shown. Read-outs that look alike come from different tables or passages of the source.

Key:
S. aureus ATCC 25923 [1] = experiment: Antibacterial activity, pre-exposure (planktonic cells and biofilm formation); assay type: cell-based, Staphylococcus aureus; conditions: for MIC / inhibition at 5 µM / inhibition at 10 µM / inhibition at 15 µM / inhibition at 25 µM: Staphylococcus aureus, ATCC25923; for inhibition at 5 µM / inhibition at 10 µM / inhibition at 15 µM / inhibition at 25 µM / Average inhibition %, biofilms viability / Average inhibition %, planktonic cells viability: ± SD
Summary of the method: (§1)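 Read-outs were turbidity and resazurin reduction for planktonic cells, and resazurin followed by crystal violet biomass (A595) for biofilms. Compounds were present from inoculation onward, with 18 h aerobic growth at 37 °C under shaking.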

S. aureus ATCC 25923 [2] = experiment: Antibacterial activity, post-exposure on preformed 18-h-old biofilms; assay type: cell-based, Staphylococcus aureus; conditions: ± SD; for inhibition at 25 µM / inhibition at 50 µM / inhibition at 100 µM / inhibition at 200 µM: Staphylococcus aureus; for inhibition at 25 µM: ATCC25923, 25 µM; for inhibition at 50 µM: ATCC25923, 50 µM; for inhibition at 100 µM: ATCC25923, 100 µM; for inhibition at 200 µM: ATCC25923, 200 µM
Summary of the method: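 Biofilms grown 18 h without compound, medium then replaced and compound added for a further 24 h. Planktonic OD and resazurin (20 μM final) fluorescence (ex 560/em 590 nm) read; washed biofilms stained with 20 μM resazurin 30 min at 37 °C, then ethanol-fixed and crystal violet-stained, absorbance 595 nm.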

A. baumannii NCTC 13423 = experiment: Antibacterial activity, pre-exposure; assay type: cell-based, Acinetobacter baumannii; conditions: for Average inhibition %, biofilms viability / Average inhibition %, planktonic cells viability / inhibition at 10 µM / inhibition at 15 µM / inhibition at 25 µM / inhibition at 50 µM: A. baumannii NCTC 13423, pre-exposure, ± SD; for inhibition at 10 µM / inhibition at 15 µM / inhibition at 25 µM / inhibition at 50 µM / MIC: Acinetobacter baumannii, NCTC13423
Summary of the method: as §1

P. aeruginosa ATCC 9027 = experiment: Antibacterial activity, pre-exposure; assay type: cell-based, Pseudomonas aeruginosa; conditions: for Average inhibition %, biofilms viability / Average inhibition %, planktonic cells viability / inhibition at 50 µM / inhibition at 100 µM / inhibition at 150 µM / inhibition at 200 µM: P. aeruginosa ATCC 9027, pre-exposure, ± SD; for inhibition at 50 µM / inhibition at 100 µM / inhibition at 150 µM / inhibition at 200 µM: Pseudomonas aeruginosa, ATCC9027
Summary of the method: as §1

[3] = read-out: Average inhibition %, biofilms biomass
[4] = read-out: Average inhibition %, planktonic cells turbidity
[5] = 50 µM, read-out: Average inhibition %, biofilms biomass
[6] = 50 µM, read-out: Average inhibition %, planktonic cells turbidity

CCCCCCCCCCc1ccc(C(O)CC(N)(CO)CO)cc1 (stereo not shown) [Compound 55, 3-Amino-3-(hydroxymethyl)-1-(4-decylphenyl)butane-1,4-diol]
MIC (S. aureus ATCC 25923 [1]; lowest concentration with no visible growth (>90% inhibition of turbidity and viability of planktonic cells), 18 h, read-out: MIC S. aureus ATCC 25923): 5 to 15 µM (≈ 1.76 to 5.27 µg/mL)
inhibition at 5 µM (S. aureus ATCC 25923 [1]; pre-exposure, 5 µM, read-out: Average inhibition %, biofilms biomass): 48.4 ± 41.1%
inhibition at 5 µM (S. aureus ATCC 25923 [1]; pre-exposure, 5 µM, read-out: Average inhibition %, planktonic cells turbidity): 38.2 ± 53.8%
inhibition at 10 µM (S. aureus ATCC 25923 [1]; pre-exposure, 10 µM, read-out: Average inhibition %, biofilms biomass): 69.6 ± 23.5%
inhibition at 10 µM (S. aureus ATCC 25923 [1]; pre-exposure, 10 µM, read-out: Average inhibition %, planktonic cells turbidity): 43.5 ± 48.8%
inhibition at 15 µM (S. aureus ATCC 25923 [1]; pre-exposure, 15 µM, read-out: Average inhibition %, biofilms biomass): 93.4 ± 1.1%
inhibition at 15 µM (S. aureus ATCC 25923 [1]; pre-exposure, 15 µM, read-out: Average inhibition %, planktonic cells turbidity): 99 ± 0.6%
inhibition at 25 µM (S. aureus ATCC 25923 [1]; pre-exposure, 25 µM, read-out: Average inhibition %, biofilms biomass): 94.2 ± 1.1%
inhibition at 25 µM (S. aureus ATCC 25923 [1]; pre-exposure, 25 µM, read-out: Average inhibition %, planktonic cells turbidity): 98.8 ± 0.6%
MIC (S. aureus ATCC 25923 [1]; pre-exposure, lowest value among replicates, read-out: MIC S. aureus ATCC 25923, for some replicates): 5 µM (≈ 1.76 µg/mL)
MIC (S. aureus ATCC 25923 [1]; read-out: MIC (S. aureus)): 5 to 15 µM (≈ 1.76 to 5.27 µg/mL)
Average inhibition %, biofilms viability (S. aureus ATCC 25923 [1]; pre-exposure, 5 µM): 50.6 ± 42%
Average inhibition %, planktonic cells viability (S. aureus ATCC 25923 [1]; pre-exposure, 5 µM): 33.2 ± 57.6%
Average inhibition %, biofilms viability (S. aureus ATCC 25923 [1]; pre-exposure, 10 µM): 66.7 ± 28.3%
Average inhibition %, planktonic cells viability (S. aureus ATCC 25923 [1]; pre-exposure, 10 µM): 43.1 ± 49.4%
Average inhibition %, biofilms viability (S. aureus ATCC 25923 [1]; pre-exposure, 15 µM): 99.2 ± 0.2%
Average inhibition %, planktonic cells viability (S. aureus ATCC 25923 [1]; pre-exposure, 15 µM): 99.8 ± 0.1%
Average inhibition %, biofilms viability (S. aureus ATCC 25923 [1]; pre-exposure, 25 µM): 99.6 ± 0.2%
Average inhibition %, planktonic cells viability (S. aureus ATCC 25923 [1]; pre-exposure, 25 µM): 99.8 ± 0.2%
Average inhibition %, biofilms viability (S. aureus ATCC 25923 [2]; 25 µM): 17.9 ± 13.2%
Average inhibition %, planktonic cells viability (S. aureus ATCC 25923 [2]; 25 µM): 0 ± 0%
Average inhibition %, biofilms viability (S. aureus ATCC 25923 [2]; 50 µM): 36.8 ± 8.3%
Average inhibition %, planktonic cells viability (S. aureus ATCC 25923 [2]; 50 µM): 0 ± 0%
Average inhibition %, biofilms viability (S. aureus ATCC 25923 [2]; 100 µM): 44.4 ± 9.7%
Average inhibition %, planktonic cells viability (S. aureus ATCC 25923 [2]; 100 µM): 70 ± 12.5%
Average inhibition %, biofilms viability (S. aureus ATCC 25923 [2]; 200 µM): 94 ± 8.6%
Average inhibition %, planktonic cells viability (S. aureus ATCC 25923 [2]; 200 µM): 100.4 ± 0%
inhibition at 25 µM (S. aureus ATCC 25923 [2]; [3]): 51.6 ± 18.4%
inhibition at 25 µM (S. aureus ATCC 25923 [2]; [4]): 15.7 ± 13.7%
inhibition at 50 µM (S. aureus ATCC 25923 [2]; [3]): 63.1 ± 9%
inhibition at 50 µM (S. aureus ATCC 25923 [2]; [4]): 9.8 ± 13.9%
inhibition at 100 µM (S. aureus ATCC 25923 [2]; [3]): 61.4 ± 3.4%
inhibition at 100 µM (S. aureus ATCC 25923 [2]; [4]): 67.6 ± 10.3%
inhibition at 200 µM (S. aureus ATCC 25923 [2]; [3]): 80.8 ± 4.2%
inhibition at 200 µM (S. aureus ATCC 25923 [2]; [4]): 84.2 ± 3.1%
Average inhibition %, biofilms viability (A. baumannii NCTC 13423; 10 µM): 1.8 ± 3.2%
Average inhibition %, planktonic cells viability (A. baumannii NCTC 13423; 10 µM): 3.8 ± 3.3%
Average inhibition %, biofilms viability (A. baumannii NCTC 13423; 15 µM): 92.7 ± 9.4%
Average inhibition %, planktonic cells viability (A. baumannii NCTC 13423; 15 µM): 98.1 ± 2.3%
Average inhibition %, biofilms viability (A. baumannii NCTC 13423; 25 µM): 100.6 ± 0.9%
Average inhibition %, planktonic cells viability (A. baumannii NCTC 13423; 25 µM): 99.7 ± 0%
Average inhibition %, biofilms viability (A. baumannii NCTC 13423; 50 µM): 101 ± 1%
Average inhibition %, planktonic cells viability (A. baumannii NCTC 13423; 50 µM): 99.5 ± 0%
inhibition at 10 µM (A. baumannii NCTC 13423; 10 µM, read-out: Average inhibition %, biofilms biomass): 0.2 ± 0.4%
inhibition at 10 µM (A. baumannii NCTC 13423; 10 µM, read-out: Average inhibition %, planktonic cells turbidity): 0.8 ± 1.4%
inhibition at 15 µM (A. baumannii NCTC 13423; 15 µM, read-out: Average inhibition %, biofilms biomass): 74.2 ± 18.9%
inhibition at 15 µM (A. baumannii NCTC 13423; 15 µM, read-out: Average inhibition %, planktonic cells turbidity): 97.2 ± 2.5%
inhibition at 25 µM (A. baumannii NCTC 13423; 25 µM, read-out: Average inhibition %, biofilms biomass): 88.5 ± 6.6%
inhibition at 25 µM (A. baumannii NCTC 13423; 25 µM, read-out: Average inhibition %, planktonic cells turbidity): 99.5%
inhibition at 50 µM (A. baumannii NCTC 13423; [5]): 87.4 ± 4.1%
inhibition at 50 µM (A. baumannii NCTC 13423; [6]): 99.1%
MIC (A. baumannii NCTC 13423; pre-exposure, Inactive = no activity up to 50 μM, > = some inhibition but no MIC reached, read-out: MIC A. baumannii NCTC 13423): 15 µM (≈ 5.27 µg/mL)
MIC (A. baumannii NCTC 13423; supplementary molecular formula strings sheet, read-out: MIC (A. baumannii)): 15 µM (≈ 5.27 µg/mL)
Average inhibition %, biofilms viability (P. aeruginosa ATCC 9027; 50 µM): 13.6 ± 11.8%
Average inhibition %, planktonic cells viability (P. aeruginosa ATCC 9027; 50 µM): 31.2 ± 8.9%
Average inhibition %, biofilms viability (P. aeruginosa ATCC 9027; 100 µM): 9.4 ± 9.2%
Average inhibition %, planktonic cells viability (P. aeruginosa ATCC 9027; 100 µM): 30.3 ± 25.5%
Average inhibition %, biofilms viability (P. aeruginosa ATCC 9027; 150 µM): 3.3 ± 4.6%
Average inhibition %, planktonic cells viability (P. aeruginosa ATCC 9027; 150 µM): 40.3 ± 27.1%
Average inhibition %, biofilms viability (P. aeruginosa ATCC 9027; 200 µM): 5 ± 5.6%
Average inhibition %, planktonic cells viability (P. aeruginosa ATCC 9027; 200 µM): 27.1 ± 15.6%
inhibition at 50 µM (P. aeruginosa ATCC 9027; [5]): 6.4 ± 8.2%
inhibition at 50 µM (P. aeruginosa ATCC 9027; [6]): 45.1 ± 5.7%
inhibition at 100 µM (P. aeruginosa ATCC 9027; 100 µM, read-out: Average inhibition %, biofilms biomass): 10.8 ± 8.8%
inhibition at 100 µM (P. aeruginosa ATCC 9027; 100 µM, read-out: Average inhibition %, planktonic cells turbidity): 49.4 ± 8.3%
inhibition at 150 µM (P. aeruginosa ATCC 9027; 150 µM, read-out: Average inhibition %, biofilms biomass): 12 ± 10.4%
inhibition at 150 µM (P. aeruginosa ATCC 9027; 150 µM, read-out: Average inhibition %, planktonic cells turbidity): 54.3 ± 13.8%
inhibition at 200 µM (P. aeruginosa ATCC 9027; 200 µM, read-out: Average inhibition %, biofilms biomass): 3.1 ± 2.7%
inhibition at 200 µM (P. aeruginosa ATCC 9027; 200 µM, read-out: Average inhibition %, planktonic cells turbidity): 59.4 ± 7.3%
MIC P. aeruginosa ATCC 9027 (P. aeruginosa ATCC 9027; pre-exposure, Inactive = no activity up to 200 μM, > = some inhibition but no MIC reached): Inactive
